The text below walks through data of patent publication US6867185B2 (Bristol-Myers Squibb Company, priority 2001, dated 2005).

In experiment [1] the test system is HCV replicon in Huh7 cells. Nature of the experiment: HCV replicon cell-based assay (replicon FRET assay). Set-up: species or system HCV strain 1B. As to conditions: EC50 ranges. The text has this: An HCV replicon whole cell system was established as described by Lohmann V, Korner F, Koch J, Herian U, Theilmann L, Bartenschlager R., Science 285 (5424):110-3 (1999). This system enabled us to evaluate the effects of our HCV Protease compounds on HCV RNA replication. Briefly, using the HCV strain 1B sequence described in the Lohmann paper (Assession number:AJ238799), an HCV cDNA was generated encoding the 5′ internal ribosome entry site (IRES), the neomycin resistance gene, the EMCV (encephalomyocarditis viurs)-IRES and the HCV nonstructural proteins, NS3-NS5B, and 3′ non-translated region (NTR). In vitro transcripts of the cDNA were transfected into the human hepatoma cell line, Huh7. […] Resulting cell lines were characterized for positive and negative strand RNA production and protein production over time.
Huh7 cells, constitutively expressing the HCV replicon, were grown in Dulbecco's Modified Eagle Media (DMEM) containing 10% Fetal calf serum (FCS) and 1 mg/ml G418 (Gibco-BRL). Cells were seeded the night before (1.5×10^4 cells/well) in 96-well tissue-culture sterile plates. Compound and no compound controls were prepared in DMEM containing 4% FCS, 1:100 Penicillin/Streptomysin, 1:100 L-glutamine and 5% DMSO in the dilution plate (0.5% DMSO final concentration in the assay). Compound/DMSO mixes were added to the cells and incubated for 4 days at 37° C. After 4 days, plates were rinsed thoroughly with Phosphate-Buffered Saline (PBS) (3 times 150 μl). The cells were lysed with 25 μl of a lysis assay reagent containing the FRET peptide (RET S1, as described for the in vitro enzyme assay). The lysis assay reagent was made from 5× cell Luciferase cell culture lysis reagent(Promega #E153A) diluted to 1× with distilled water, NaCl added to 150 mM final, the FRET peptide diluted to 10 μM final from a 2 mM stock in 100% DMSO. The plate was then placed into the Cytofluor 4000 instrument which had been set to 340 nm excitation/490 emission, automatic mode for 21 cycles and the plate read in a kinetic mode. EC50 determinations were carried out as described for the IC50 determinations.

In experiment [2] the target is T1, HCV NS3/4A protease complex, BMS strain (genotype 1a) (Hepatitis C virus genotype 1a, UniProt P27958, C1454S/C1711G).
T1 construct: recombinant HCV NS3/4A protease complex (amino'acids 1027 to 1711); inferred from the pET21b vector and Ni-NTA purification; made in house; host or cells: Escherichia coli BL21 (DE3), pET21b
T1 sequence (P27958 1027-1711 C1454S/C1711G, one chain of several): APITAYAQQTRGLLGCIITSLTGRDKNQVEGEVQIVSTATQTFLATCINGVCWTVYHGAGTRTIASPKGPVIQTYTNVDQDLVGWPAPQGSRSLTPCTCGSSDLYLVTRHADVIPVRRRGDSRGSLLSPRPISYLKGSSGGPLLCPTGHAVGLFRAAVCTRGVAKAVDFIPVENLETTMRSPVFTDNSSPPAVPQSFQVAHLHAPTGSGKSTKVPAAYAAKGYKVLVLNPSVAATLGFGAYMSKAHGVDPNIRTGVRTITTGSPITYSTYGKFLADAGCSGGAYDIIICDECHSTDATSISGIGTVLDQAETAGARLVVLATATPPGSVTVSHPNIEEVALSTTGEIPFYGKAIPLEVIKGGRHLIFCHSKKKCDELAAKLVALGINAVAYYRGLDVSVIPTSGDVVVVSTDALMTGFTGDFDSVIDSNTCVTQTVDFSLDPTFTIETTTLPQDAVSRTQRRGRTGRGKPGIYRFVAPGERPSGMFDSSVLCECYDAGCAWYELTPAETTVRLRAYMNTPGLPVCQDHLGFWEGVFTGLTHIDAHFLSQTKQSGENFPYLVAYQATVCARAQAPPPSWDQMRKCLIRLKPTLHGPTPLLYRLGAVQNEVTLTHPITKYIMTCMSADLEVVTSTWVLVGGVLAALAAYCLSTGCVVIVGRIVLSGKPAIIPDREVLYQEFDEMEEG
As to the kind of experiment: Recombinant HCV NS3/4A protease complex FRET peptide assay (BMS strain). In kind it is biochemical. As to conditions: IC50 ranges. An excerpt:
The purpose of this in vitro assay was to measure the inhibition of HCV NS3 protease complexes, derived from the BMS, H77C or J4L6S strains, as described below, by compounds of the present invention. This assay provides an indication of how effective compounds of the present invention would be in inhibiting HCV proteolytic activity.
Serum from an HCV-infected patient was obtained from Dr. T. Wright, San Francisco Hospital. An engineered full-length cDNA (compliment deoxyribonucleic acid) template of the HCV genome (BMS strain) was constructed from DNA fragments obtained by reverse transcription-PCR (RT-PCR) of serum RNA (ribonucleic acid) and using primers selected on the basis of homology between other genotype 1a strains. From the determination of the entire genome sequence, a genotype 1a was assigned to the HCV isolate according to the classification of Simmonds et al. (See P Simmonds, K A Rose, S Graham, S W Chan, F McOmish, B C Dow, E A Follett, P L Yap and H Marsden, J. Clin. Microbiol., 31 (6), 1493-1503 (1993)). […] The infectious clones, H77C (1a genotype) and J4L6S (1b genotype) were obtained from R. Purcell (N1H) and the sequences are published in Genbank (AAB67036, see Yanagi, M., Purcell, R. H., Emerson, S. U. and Bukh, J. Proc. Natl. Acad. Sci. U.S.A. 94 (16), 8738-8743 (1997); AF054247, see Yanagi, M., St Claire, M., Shapiro, M., Emerson, S. U., Purcell, R. H. and Bukh, J, Virology 244 (1), 161-172. (1998)).
The BMS, H77C and J4L6S strains were used for production of recombinant NS3/4A protease complexes. DNA encoding the recombinant HCV NS3/4A protease complex (amino'acids 1027 to 1711) for these strains were manipulated as described by P. Gallinari et al. (see Gallinari P, Paolini C, Brennan D, Nardi C, Steinkuhler C, De Francesco R. Biochemistry. 38 (17):5620-32, (1999)). Briefly, a three-lysine solubilizing tail was added at the 3′-end of the NS4A coding region. The cysteine in the P1 position of the NS4A-NS4B cleavage site (amino acid 1711) was changed to a glycine to avoid the proteolytic cleavage of the lysine tag. Furthermore, a cysteine to serine mutation was introduced by PCR at amino acid position 1454 to prevent the autolytic cleavage in the NS3 helicase domain. The variant DNA fragment was cloned in the pET21b bacterial expression vector (Novagen)and the NS3/4A complex was expressed in Escherichia. coli strain BL21 (DE3) (Invitrogen) following the protocol described by P. Gallinari et al. (see Gallinari P, Brennan D, Nardi C, Brunetti M, Tomei L, Steinkuhler C, De Francesco R., J. Virol. 72 (8):6758-69 (1998)) with modifications. Briefly, NS3/4A expression was induced with 0.5 mM Isopropyl β-D-1-thiogalactopyranoside (IPTG) for 22 hr at 20° C. A typical fermentation (10L) yielded approximately 80 g of wet cell paste. The cells were resuspended in lysis buffer (10 mL/g) consisting of 25 mM N-(2-Hydroxyethyl)Piperazine-N′-(2-Ethane Sulfonic acid) (HEPES), pH 7.5, 20% glycerol, 500 mM Sodium Chloride (NaCl), 0.5% Triton-X100, 1 ug/ml lysozyme, 5 mM Magnesium Chloride (MgCl2), 1 ug/ml Dnasel, 5 mM β-Mercaptoethanol (OME), Protease inhibitor-Ethylenediamine Tetraacetic acid (EDTA) free (Roche), homogenized and incubated for 20 mins at 4° C. The homogenate was sonicated and clarified by ultra-centrifugation at 235000 g for 1 hr at 4° C. Imidazole was added to the supernatant to a final concentration of 15 mM and the pH adjusted to 8.0. The crude protein extract was loaded on a Nickel-Nitrilotriacetic acid (Ni-NTA) column pre-equilibrated with buffer B (25 mM HEPES, pH 8.0, 20% glycerol, 500 mM NaCl, 0.5% Triton-X100, 15 mM imidazole, 5 mM βME). The sample was loaded at a flow rate of 1 mL/min. The column was washed with 15 column volumes of buffer C (same as buffer B except with 0.2% Triton-X100). The protein was eluted with 5 column volumes of buffer D (same as buffer C except with 200 mM Imidazole). […]

The mark [3] stands for this setting: Hepatitis C virus, Huh-7, HCV replicon cell assay.
[4] abbreviates: IC50, HCV NS3/4A protease FRET assay in vitro.

Where a name gives a salt, the structure may show the parent alone. Read-outs that look alike come from different tables or passages of the source. Some results are limits rather than exact numbers.

For the compound `COc1ccc2c(O[C@@H]3C[C@H]4C(=O)N[C@]5(C(=O)NS(=O)(=O)C6CC6)C[C@H]5/C=C\CCCCC[C@H](NC(=O)OC(C)(C)C)C(=O)N4C3)cc(-c3ccccc3)nc2c1` (relative stereo) [Compound 11, (1S,4R,6S,13S,18R)-7-cis-[4-Cyclopropanesulfonyl-aminocarbonyl-18-(7-methoxy-2-phenylquinolin-4-yloxy)-2,15-dioxo-3,16-diazatricyclo-[14.3.0.0^4,6]nona-dec-7-en-14-yl]carbamic acid tert-butyl ester], the EC50 in experiment [1] (HCV replicon cell assay, read-out: EC50) is < 50 nM. Moreover, the IC50 in experiment [2] (HCV NS3/4A protease FRET assay in vitro, read-out: IC50) was < 50 nM.

As for `COc1ccc2c(O[C@@H]3C[C@H]4C(=O)N[C@]5(C(=O)NS(=O)(=O)C6CC6)C[C@H]5/C=C/CC[C@H](NC(=O)OC(C)(C)C)C(=O)N4C3)cc(-c3ccccc3)nc2c1` [Compound 1, (1S,4R,6S,11S,15R)-7-trans-[4-Cyclopropanesulfonyl-amino-carbonyl-15-(7-methoxy-2-phenylquinolin-4-yloxy)-2,12-dioxo-3,13-diazatricyclo[11.3.0.0^4,6]hexa-dec-7-en-11-yl]carbamic acid tert-butyl ester], the EC50 in experiment [1] (setting [3]) was < 50000 nM. In addition, the IC50 in experiment [2] (setting [4]) was < 5000 nM.

As to `COc1ccc2c(O[C@@H]3C[C@H]4C(=O)N[C@]5(C(=O)NS(=O)(=O)C6CC6)CC5/C=C/CC[C@H](N)C(=O)N4C3)cc(-c3ccccc3)nc2c1` (stereo partly drawn) [Compound 2, (1S 4R,6S,11S,15R)-7-trans-Cyclopropanesulfonic acid [11-amino-15-(7-methoxy-2-phenylquinolin-4-yloxy)-2,12-dioxo-3,13-diazatricyclo-[11.3.0.0^4,6]hexadec-7-ene-4-carbonyl]amide dihydrochloride], the half-inhibitory concentration (IC50) in experiment [2] (setting [4]) is < 5000 nM. In the case of `COc1ccc2c(O[C@@H]3C[C@H]4C(=O)N[C@]5(C(=O)NS(=O)(=O)C6CC6)CC5/C=C/CCC[C@H](NC(=O)OC(C)(C)C)C(=O)N4C3)cc(-c3ccccc3)nc2c1` (stereo partly drawn) [Compound 3, (1S,4R,6S,12S,16R)-7-trans-[4-Cyclopropanesulfonyl-aminocarbonyl-16-(7-methoxy-2-phenylquinolin-4-yloxy)-2,13-dioxo-3,14-diazatricyclo[12.3.0.0^4,6]heptadec-7-en-12-yl]carbamic acid tert-butyl ester], the EC50 in experiment [1] (setting [3]) was < 50000 nM. The IC50 in experiment [2] (setting [4]) was < 5000 nM.

As for `COc1ccc2c(O[C@@H]3C[C@H]4C(=O)N[C@]5(C(=O)NS(=O)(=O)C6CC6)CC5/C=C/CCC[C@H](N)C(=O)N4C3)cc(-c3ccccc3)nc2c1` (stereo partly drawn) [Compound 4, (1S,4R,6S,12S,16R)-7-trans-Cyclopropanesulfonic acid [12-amino-16-(7-methoxy-2-phenylquinolin-4-yloxy)-2,13-dioxo-3,14-diazatricyclo [12.3.0.0^4,6]heptadec-7-ene-4-carbonyl]amide dihydrochloride], in experiment [2] (setting [4]), the IC50 is < 50000 nM. For `COc1ccc2c(O[C@@H]3C[C@H]4C(=O)N[C@]5(C(=O)NS(=O)(=O)C6CC6)CC5/C=C/CCCC[C@H](NC(=O)OC(C)(C)C)C(=O)N4C3)cc(-c3ccccc3)nc2c1` (stereo partly drawn) [Compound 5, (1S,4R,6S,13S,17R)-7-trans-[4-Cyclopropanesul-fonylamino-carbonyl-17-(7-methoxy-2-phenylquinolin-4-yloxy)-2,14-dioxo-3,15-diazatricyclo[13.3.0.0^4,6]octa-dec-7-en-13-yl]carbamic acid tert-butyl ester], the EC50 in experiment [1] (setting [3]) is < 50 nM. In addition, the IC50 in experiment [2] (setting [4]) is < 50 nM. Take `COc1ccc2c(O[C@@H]3C[C@H]4C(=O)N[C@]5(C(=O)NS(=O)(=O)C6CC6)CC5/C=C\CCCC[C@H](NC(=O)OC(C)(C)C)C(=O)N4C3)cc(-c3ccccc3)nc2c1` (stereo partly drawn) [Compound 7, (1S,4R,65,13S,17R)-7-cis-[4-Cyclopropanesulfonylamino-carbonyl-17-(7-methoxy-2-phenylquinolin-4-yloxy)-2,14-dioxo-3,15-diazatricyclo[13.3.0.0^4,6]octadec-7-en-13-yl]carbamic acid tert-butyl ester]: the EC50 in experiment [1] (setting [3]) is < 50 nM. Also, in experiment [2] (setting [4]), the half-maximal inhibitory concentration (IC50) was < 50 nM. As for `COc1ccc2c(O[C@@H]3C[C@H]4C(=O)N[C@]5(C(=O)NS(=O)(=O)C6CC6)CC5/C=C\CCCC[C@H](N)C(=O)N4C3)cc(-c3ccccc3)nc2c1` (stereo partly drawn) [Compound 8, (1S,4R,6S,13S,17R)-7-cis-Cyclopropanesulfonic acid [13-amino-17-(7-methoxy-2-phenylquinolin-4-yloxy)-2,14-dioxo-3,15-diazatricyclo[13.3.0.0^4,6]octadec-7-ene-4-carbonyl]amide dihydrochloride], the EC50 in experiment [1] (setting [3]) was < 500 nM. The IC50 in experiment [2] (setting [4]) is < 50 nM. As for `COc1ccc2c(O[C@@H]3C[C@H]4C(=O)N[C@]5(C(=O)NS(=O)(=O)C6CC6)C[C@H]5/C=C\CCCCC[C@H](NC(=O)OC(C)(C)C)C(=O)N4C3)cc(-c3ccccc3)nc2c1` [Compound 9, (1S,4R,6S,14S,18R)-7-cis-[4-Cyclopropanesulfonylamino-carbonyl-18-(7-methoxy-2-phenylquinolin-4-yloxy)-2,15-dioxo-3,16-diazatricyclo[14.3.0.0^4,6]nonadec-7-en-14-yl]carbamic acid tert-butyl ester], in experiment [1] (setting [3]), the EC50 is < 50 nM. Moreover, the IC50 in experiment [2] (setting [4]) is < 50 nM.
